Experimental findings from patent US10758609B2, “Cross-reactive T-cell epitopes of HIV, SIV, and FIV for vaccines in humans and cats” (priority 2015, dated 2020) are described below.

Assay [1] relates to CD3^+CD8^+ T cells from HIV^+ subjects. Kind of assay: CFSE-based CD3+CD8+ T-cell proliferation, HIV+ human subjects. The following applies: for CD8, frequency of responders: FIV epitope peptide; for CD8^+ T (T-cell proliferation), frequency of responders: FIV peptides. The procedure:
(§1) The overlapping peptide pools of FIV and HIV-1 structural and enzyme proteins were used to stimulate the […] (PBMC) and the T cells from HIV^+ subjects as previously described for epitope mapping of HIV-1 and FIV p24 and reverse transcriptase (RT) (Sanou et al., 2013; Roff et al., 2015). The individual peptides in those peptide pools with positive responses to either interferon-γ (IFNγ) production and/or T-cell proliferation were determined with IFNγ ELISpot analysis and CFSE-based CD3^+CD4^+ and CD3^+CD8^+ T-cell proliferation analyses followed by the FACS-based intracellular staining (ICS) for cytolysin (perforin) and cytotoxin (granzyme A [GrzA] and GrzB) (Sanou et al., 2013; Roff et al., 2015). Besides viral p24 and RT proteins, the identical approach was used to identify anti-HIV/FIV T-cell epitopes on viral matrix (MA), nucleocapsid (NC), protease (PR), RNAase, integrase (IN), surface envelope (SU Env), and transmembrane envelope (TM Env) (FIG. 12).
(§2) Since our goal is to develop HIV vaccine for human use, the HIV peptides (Table 10) counterpart of the cross-reactive FIV peptides shown in Table 9 were tested with PBMC and T cells from HIV^+ subjects. The immune functions analyzed were human IFNγ production by ELISpot, cytolysin/cytotoxin production by ICS, and CFSE-based proliferation of CD3^+CD4^+ and CD3^+CD8^+ T cells from HIV^+ subjects (Table 10, the first set of results). In addition, the Los Alamos National Laboratories (LANL) database was used to identify the HLA allele(s) of the HIV epitope sequence with CTL activity that can exist within the sequence of the conserved counterpart HIV peptide (Table 9, LANL CTL). The bold HLA class-I supertypes and the bold 2-digit alleles are those on the “Optimal CD8^+ CTL Epitopes” list and those without bold are alleles for potential CTL epitope. […] The HLA class II such as HLA-DRB1 has yet to be fully classified into supertypes, and therefore the 4-digit resolution nomenclatures for the HLA-DRB1 alleles are shown.
(§3) The threshold for positive IFNγ and IL2 ELISpot responses is ≥50 spot-forming units (SFU) per 10^6 PBMC. The threshold for CFSE-based CD4^+ and CD8^+ T-cell proliferation is ≥2% CD4^+ T-cell CFSE^low or CD8^+ T-cell CFSE^low. The threshold of FACS-based intracellular cytokine staining (ICS) is ≥0.2%. […] The nine FIV peptides in black were used in the current MAP vaccine trial, whereas the 13 peptides in blue were not used. […] The MAPs and their corresponding peptide(s) were also tested for their ability to enhance or suppress in vitro FIV infection of feline PBMC (E/S of peptides and E/S of MAP).
The counterpart HIV-1 peptides of the FIV peptides were also tested for immunogenicity using PBMC and T cells from HIV^+ human subjects. […] The HRT7-1 and HRT7-2 were also tested with cells from HIV^+ subjects on ART. The threshold for positive IFNγ ELISpot response is ≥75 spot-forming units (SFU) per 10^6 PBMC. The threshold for CFSE-based CD4^+ (CD4^+ T) and CD8^+ (CD8^+ T) T-cell proliferation is ≥2% CD4^+ T-cell CFSE^low or CD8^+ T-cell CFSE^low. The threshold of intracellular cytokine staining (ICS) of FACS-based cytolysin (perforin) and cytotoxins (granzymes A and B) in CD4^+ T cells (CyCD4) and CD8^+ T cells (CyCD8) is ≥0.2%. […] The nine HIV-1 peptides in black are the counterpart FIV peptides used in the current MAP vaccine trial, whereas the 13 peptides in blue were not.

The next assay has as its system PBMC from HIV^+ subjects. Kind of assay: IFNγ ELISpot of PBMC from HIV+ human subjects. In kind it is cell-based. The procedure:
as §1, §2
In addition, these peptides were also analyzed for IFNγ production, CD4^+ and CD8^+ T-cell proliferation, and cytolysin (perforin) and cytotoxin (granzyme A (GrzA) and GrzB)) mRNA production of PBMC or T cells from 8-30 HIV^+ human subjects. The frequency of responders is based on the individual responses of the vaccinated cats or HIV^+ human subjects after subtraction of the average of the responses of PBMC or T cells from 6-8 non-vaccinated cats or 8-20 HIV-negative human subjects.
as §3
The counterpart HIV-1 peptides of the FIV peptides were also tested for immunogenicity using PBMC and T cells from HIV^+ human subjects. […] The HRT7-1 and HRT7-2 were also tested with cells from HIV^+ subjects on ART. The threshold for positive IFNγ ELISpot response is ≥75 spot-forming units (SFU) per 10^6 PBMC. The threshold for CFSE-based CD4^+ (CD4^+ T) and CD8^+ (CD8^+ T) T-cell proliferation is ≥2% CD4^+ T-cell CFSE^low or CD8^+ T-cell CFSE^low. The threshold of intracellular cytokine staining (ICS) of FACS-based cytolysin (perforin) and cytotoxins (granzymes A and B) in CD4^+ T cells (CyCD4) and CD8^+ T cells (CyCD8) is ≥0.2%.

As to LLLILCLPTLVDCIRN [FTM8(20)], in assay [1], the “CD8, frequency of responders” value is listed as “++++ (>54% (++++))” and the “CD8^+ T (T-cell proliferation), frequency of responders” value (“CD8^+ T (T-cell proliferation)” for short) is “++++ (>54% (++++))”. The “IFNγ, frequency of responders” value in the assay with PBMC from HIV^+ subjects (FIV epitope peptide) is listed as “— (0%-1.4% (—))”. Besides, the “IFNγ, frequency of responders” value in the assay on PBMC from HIV^+ subjects (FIV peptides) is given as “— (0%-1.4%(—))”.

Regarding KFLYTAFAMQELR [FTM4-3], in assay [1], the “CD8, frequency of responders” value was “— (0%-1.4% (—))” and the “CD8^+ T (T-cell proliferation)” value is on record as “— (0%-1.4%(—))”. Moreover, in the assay with PBMC from HIV^+ subjects (FIV epitope peptide), the “IFNγ, frequency of responders” value is reported as “— (0%-1.4% (—))”. Besides, the “IFNγ, frequency of responders” value in the assay with PBMC from HIV^+ subjects (FIV peptides) was “— (0%-1.4%(—))”.

For the sequence WRMLIDFRVLNKL [FRT3-4], in assay [1], the “CD8, frequency of responders” value is reported as “++ (26%-40% (++))” and the “CD8^+ T (T-cell proliferation)” value is “++ (25.1%-40% (++))”. Also, the “IFNγ, frequency of responders” value with PBMC from HIV^+ subjects (FIV epitope peptide) is “— (0%-1.4% (—))”. In the assay on PBMC from HIV^+ subjects (FIV peptides), the “IFNγ, frequency of responders” value is listed as “— (0%-1.4%(—))”.

In the case of PTDMATLIMAAPGCA [Fp4-3], the “CD8, frequency of responders” value in assay [1] is listed as “— (0%-1.4% (—))”. Further, the “CD8^+ T (T-cell proliferation)” value in assay [1] is listed as “— (0%-1.4%(—))”. The figures for the “IFNγ, frequency of responders” value in the assay on PBMC from HIV^+ subjects (FIV epitope peptide) and in the assay on PBMC from HIV^+ subjects (FIV peptides) were “— (0%-1.4% (—))” and “— (0%-1.4%(—))”, respectively.

Consider KKKSGKWRMLIDFRV [FRT3-3], for which, in assay [1], the “CD8, frequency of responders” value is on record as “++++ (>54% (++++))”. In addition, the “CD8^+ T (T-cell proliferation)” value in assay [1] was “++++ (>54% (++++))”. Also, the “IFNγ, frequency of responders” value in the assay on PBMC from HIV^+ subjects (FIV epitope peptide) and in the assay on PBMC from HIV^+ subjects (FIV peptides) was “++++ (>54% (++++))” in each case.

On to AGLRQSLEQYQVVKQ [FSU4], for which, in assay [1], the “CD8, frequency of responders” value was “— (0%-1.4% (—))” and the “CD8^+ T (T-cell proliferation)” value is “— (0%-1.4%(—))”. The “IFNγ, frequency of responders” value in the assay with PBMC from HIV^+ subjects (FIV epitope peptide) is on record as “— (0%-1.4% (—))”. The “IFNγ, frequency of responders” value with PBMC from HIV^+ subjects (FIV peptides) is reported as “— (0%-1.4%(—))”.
